What was measured:
Assay in all cases: relative viability (nuclei count vs DMSO), 5 days (fraction); higher = more cells survive
[1] = test system: NCI-H1355
Procedure, shortened: (§1)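 Lung cancer cell lines in 1536-well plates got either a single drug or a fixed anchor-drug dose together with five library-drug doses (not always all listed) in √10 steps, by pin tool, on the day after seeding. Nuclei were counted after 5 days, and relative viability is the treated-to-vehicle ratio of nuclei counts. Values are medians of duplicate plates.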

[2] = test system: NCI-H2085
Procedure, shortened: as §1

[3] = test system: NCI-H1915
Procedure, shortened: as §1

[4] = test system: LC-2-ad
Procedure, shortened: as §1

[5] = test system: ChaGo-K-1
Procedure, shortened: as §1

[6] = test system: NCI-H23
Procedure, shortened: as §1

[7] = test system: NCI-H1651
Procedure, shortened: as §1

[8] = test system: NCI-H2126
Procedure, shortened: as §1

[9] = test system: A-427
Procedure, shortened: as §1

[10] = test system: COR-L23
Procedure, shortened: as §1

[11] = test system: SK-MES-1
Procedure, shortened: as §1

[12] = test system: NCI-H1993
Procedure, shortened: as §1

[13] = test system: HOP-62
Procedure, shortened: as §1

[14] = test system: COR-L 105
Procedure, shortened: as §1

[15] = test system: NCI-H647
Procedure, shortened: as §1

[16] = test system: NCI-H322M
Procedure, shortened: as §1

[17] = test system: HCC-44
Procedure, shortened: as §1

[18] = test system: NCI-H2087
Procedure, shortened: as §1

[19] = test system: NCI-H520
Procedure, shortened: as §1

[20] = test system: 201T
Procedure, shortened: as §1

[21] = test system: H3255
Procedure, shortened: as §1

[22] = test system: RERF-LC-KJ
Procedure, shortened: as §1

[23] = test system: NCI-H441
Procedure, shortened: as §1

Nc1cccc2c1CN(C1CCC(=O)NC1=O)C2=O (stereo not given) [Lenalidomide] + CC1(C)CCC(c2ccc(Cl)cc2)=C(CN2CCN(c3ccc(C(=O)NS(=O)(=O)c4ccc(N[C@H](CCN5CCOCC5)CSc5ccccc5)c(S(=O)(=O)C(F)(F)F)c4)cc3)CC2)C1 [Navitoclax] (partner 0.5 µM)
relative viability ([1]; first compound 0.253 µM): 1
relative viability ([1]; first compound 0.8 µM): 0.737
relative viability ([1]; first compound 2.53 µM): 0.889
relative viability ([1]; first compound 8 µM): 0.561
relative viability ([2]; first compound 0.253 µM): 1.25
relative viability ([2]; first compound 0.8 µM): 1.16
relative viability ([2]; first compound 2.53 µM): 1.26
relative viability ([2]; first compound 8 µM): 1.2
relative viability ([3]; first compound 0.253 µM): 0.775
relative viability ([3]; first compound 0.8 µM): 0.782
relative viability ([3]; first compound 2.53 µM): 0.816
relative viability ([3]; first compound 8 µM): 0.835
relative viability ([4]; first compound 0.253 µM): 0.448
relative viability ([4]; first compound 0.8 µM): 0.421
relative viability ([4]; first compound 2.53 µM): 0.478
relative viability ([4]; first compound 8 µM): 0.44
relative viability ([5]; first compound 0.253 µM): 1.08
relative viability ([5]; first compound 2.53 µM): 1.05
relative viability ([5]; first compound 8 µM): 0.949
relative viability ([6]; first compound 0.253 µM): 0.876
relative viability ([6]; first compound 0.8 µM): 0.917
relative viability ([6]; first compound 2.53 µM): 0.999
relative viability ([6]; first compound 8 µM): 0.649
relative viability ([7]; first compound 0.253 µM): 1.04
relative viability ([7]; first compound 0.8 µM): 0.931
relative viability ([7]; first compound 2.53 µM): 1.25
relative viability ([7]; first compound 8 µM): 0.898
relative viability ([8]; first compound 0.253 µM): 0.798
relative viability ([8]; first compound 0.8 µM): 0.907
relative viability ([8]; first compound 2.53 µM): 0.815
relative viability ([8]; first compound 8 µM): 0.688
relative viability ([9]; first compound 0.253 µM): 0.99
relative viability ([9]; first compound 2.53 µM): 0.911
relative viability ([9]; first compound 8 µM): 0.832
relative viability ([10]; first compound 0.253 µM): 0.986
relative viability ([10]; first compound 0.8 µM): 1.01
relative viability ([10]; first compound 2.53 µM): 0.997
relative viability ([10]; first compound 8 µM): 1.06
relative viability ([11]; first compound 0.253 µM): 1.12
relative viability ([11]; first compound 0.8 µM): 1.15
relative viability ([11]; first compound 2.53 µM): 1.3
relative viability ([11]; first compound 8 µM): 1.17
relative viability ([12]; first compound 0.253 µM): 0.906
relative viability ([12]; first compound 0.8 µM): 0.855
relative viability ([12]; first compound 2.53 µM): 0.88
relative viability ([12]; first compound 8 µM): 0.797
relative viability ([13]; first compound 0.253 µM): 1.07
relative viability ([13]; first compound 0.8 µM): 0.985
relative viability ([13]; first compound 2.53 µM): 0.944
relative viability ([13]; first compound 8 µM): 1.04
relative viability ([14]; first compound 0.253 µM): 0.45
relative viability ([14]; first compound 0.8 µM): 0.81
relative viability ([14]; first compound 2.53 µM): 0.717
relative viability ([14]; first compound 8 µM): 0.883
relative viability ([15]; first compound 0.253 µM): 1.08
relative viability ([15]; first compound 0.8 µM): 1.11
relative viability ([15]; first compound 2.53 µM): 1.4
relative viability ([15]; first compound 8 µM): 1.04
relative viability ([16]; first compound 0.253 µM): 1
relative viability ([16]; first compound 0.8 µM): 1.42
relative viability ([16]; first compound 2.53 µM): 1.17
relative viability ([16]; first compound 8 µM): 0.965
relative viability ([17]; first compound 0.253 µM): 0.966
relative viability ([17]; first compound 0.8 µM): 0.75
relative viability ([17]; first compound 2.53 µM): 1.1
relative viability ([17]; first compound 8 µM): 0.917
relative viability ([18]; first compound 0.253 µM): 1.03
relative viability ([18]; first compound 0.8 µM): 0.971
relative viability ([18]; first compound 2.53 µM): 0.962
relative viability ([18]; first compound 8 µM): 1.06
relative viability ([19]; first compound 0.253 µM): 0.958
relative viability ([19]; first compound 0.8 µM): 1.05
relative viability ([19]; first compound 2.53 µM): 1.22
relative viability ([19]; first compound 8 µM): 0.892
relative viability ([20]; first compound 0.253 µM): 1.21
relative viability ([20]; first compound 0.8 µM): 1.22
relative viability ([20]; first compound 2.53 µM): 1.19
relative viability ([20]; first compound 8 µM): 1.22
relative viability ([21]; first compound 0.253 µM): 0.519
relative viability ([21]; first compound 0.8 µM): 0.395
relative viability ([21]; first compound 2.53 µM): 0.589
relative viability ([21]; first compound 8 µM): 0.523
relative viability ([22]; first compound 0.253 µM): 0.959
relative viability ([22]; first compound 0.8 µM): 0.736
relative viability ([22]; first compound 2.53 µM): 1.02
relative viability ([22]; first compound 8 µM): 1.09
relative viability ([23]; first compound 0.253 µM): 0.507
relative viability ([23]; first compound 0.8 µM): 0.348
relative viability ([23]; first compound 2.53 µM): 0.52
relative viability ([23]; first compound 8 µM): 0.513

From the supplement of paper PMC10307832
